We go through 13 compounds from patent US7001926B2, “Tubulin binding agents and corresponding prodrug constructs” (Oxigene, Inc., priority 2000, dated 2006).

The subject of assay [1] is tubulin. The assay is described as follows: Inhibition of tubulin polymerization assay. Type of assay: biochemical. As to conditions: read-out: IC50, In Vitro Inhibition of Tubulin Polymerization; purified bovine brain tubulin, 15 min preincubation at 37° C. As to the method:
IC50 values for tubulin polymerization were determined according to a previously described procedure (Bai et al, Cancer Research, 1996). Purified tubulin is obtained from bovine brain cells as described in Hamel and Lin (Hamel and Lin, Biochemistry, 1984). Various amounts of inhibitor were preincubated for 15 minutes at 37° C. with purified tubulin. After the incubation period, the reaction was cooled and GTP was added to induce tubulin polymerization. Polymerization was then monitored in a Gilford spectrophotometer at 350 nm. The final reaction mixtures (0.25 ml) contained 1.5 mg/ml tubulin, 0.6 mg/ml microtubule-associated proteins (MAPs), 0.5 mM GTP, 0.5 mM MgCl2, 4% DMSO and 0.1M 4-morpholineethanesulfonate buffer (MES, pH 6.4).

In assay [2] the test system is MCF-7. The assay is described as follows: Growth inhibition, MCF-7 breast cancer cell line (SRB). Format: cell-based, human. As to conditions: 48 hours. The method, then: (§1) Briefly, the cell suspensions, diluted according to the particular cell type and the expected target cell density (5,000–40,000 cells per well based on cell growth characteristics), were added by pipet (100 μl) to 96-well microtiter plates. Inoculates were allowed a preincubation time of 24–28 hours at 37° C. for stabilization. Incubation with the inhibitor compounds lasted for 48 hours in 5% CO2 atmosphere and 100% humidity. Determination of cell growth was performed by in situ fixation of cells, followed by staining with a protein-binding dye sulforhodamine B (SRB), which binds to the basic amino acids of cellular macromolecules. The solubilized stain was measured spectrophotometrically.
(§2) Several compounds were evaluated for cytotoxic activity against […] P388 leukemia cell lines. […] These and additional compounds were evaluated in terms of growth inhibitory activity against several other human cancer cell lines including: central nervous system (“CNS”, SF-295), pancreas (BXPC-3), non-small cell lung cancer (“lung-NSC”, NCI-H460), breast (MCF-7), colon (KM20L2), and prostate (DU-145).

Assay [3] deals with NCI-H460. The assay is described as follows: Growth inhibition, NCI-H460 non-small cell lung cancer cell line (SRB). Format: cell-based, human. As to conditions: lung-NSC, 48 hours. The method, then: as §1, §2
The subject of assay [4] is DU-145. Put plainly: Growth inhibition, DU-145 prostate cancer cell line (SRB). Type of assay: cell-based, human. As to conditions: 48 hours. The method, then:
as §1, §2

In assay [5] the test system is BXPC-3. The assay is described as follows: Growth inhibition, BXPC-3 pancreas cancer cell line (SRB). Format: cell-based, human. The settings on record: 48 hours. The method, then:
as §1, §2

Assay [6] deals with KM20L2. The assay is described as follows: Growth inhibition, KM20L2 colon cancer cell line (SRB). Format: cell-based, human. The settings on record: 48 hours. The method, then:
as §1, §2

Assay [7] relates to SF-295. The assay is described as follows: Growth inhibition, SF-295 CNS cancer cell line (SRB). Format: cell-based, human. The settings on record: 48 hours. The method, then:
as §1, §2

The test system of assay [8] is MHEC-5T hemangioendothelioma tumor. Put plainly: Inhibition of tumor blood flow, Fluorescent Bead Assay. Format: in vivo, SCID mice. As to conditions: for % VAPM (vessel area per tumor tissue area as a percentage of the control) / % VNPM (vessel number per tumor tissue area as a percentage of the control): 24 hours post-treatment. The method, then:
The antivascular effects of the C-5 dihydronaphthalene phosphate prodrug Oxi-com 197, 43 was assessed in tumor-bearing mice using a Fluorescent Bead Assay. A MHEC-5T hemangioendothelioma tumor model was established by subcutaneous injection of 0.5×10^6 cultured transformed cell murine myocardial vascular endothelial cell line (“MHEC5-T”) cells into the right flank of Fox Chase CB-17 Severe Combined Immunodeficient (“SCID”) mice. When transplanted tumors reached a size of 500 mm^3 (a size without development of necrosis), the mice received a single intraperitoneal (i.p.) injection of saline control or compound at doses ranging from 3.2 to 25 mg/kg. At 24 hours post-treatment, mice were injected intravenously with 0.25 ml of diluted FluoSphere beads (1:6 in physiological saline) in the tail vein, sacrificed after 3 minutes, and tumor was excised for cryosectioning. Tumor cryosections at a thickness of 8 um were directly examined using quantitative fluorescent microscopy. Blood vessels were indicated by blue fluorescence from injected beads. For quantification, image analysis of 3 sections from three tumors treated in each group were examined and vascular shutdown was expressed as vessel area (mm^2) per tumor tissue area (mm^2) as a percentage of the control (“% VAPM”) and as vessel number per tumor tissue area (mm^2) as a percentage of the control (“% VNPM”). The results as shown in Table 11 indicate a clear dose-dependent effect of the agent on tumor blood flow as indicated by the reduction in blood vessel number and vessel area. Administration of a 25 mg/kg dose of Oxi-com 197 was particularly effective, causing a 90% reduction in tumor vessel number relative to the control.
Additional compounds of the present invention were tested for antivascular effects at two dosages (100 mg/kg and 10 mg/kg) using the same Fluorescent Bead Assay as in the previous experiment.

Assay [9] relates to murine hemangioendothelioma MHEC-5T cell line. The assay is described as follows: In vitro antiproliferative activity, MTT assay. Type of assay: cell-based. As to the method: The following compounds were tested for in vitro antiproliferative activity against the murine hemangioendothelioma MHEC-5T cell line using a standard MTT assay (see Mosman, J. Immunol. Methods, 1983). In actively proliferating cells, an increase in MTT conversion is spectrophotometrically quantified by the reduction of MTT (3-[4,5-dimethylthiazol-2-yl]-2,5-diphenyl tetrazolium bromide) to the insoluble formazan dye by enzymes associated with metabolic activity. A compound with growth inhibitory activity will cause a reduction in dye formation relative to cells exposed to a vehicle control.
Background: Formazan colour is commonly taken as a measure of viable cells.

For assay [10], the system named is MDA-MB-231 human breast adenocarcinoma. Put plainly: Tumor growth control in vivo. On the set-up: species or system SCID mice. The method, then: The antitumor activity of C-5 dihydronaphthalene phosphate prodrug, Oxi-com 197, was assessed in tumor-bearing mice by measuring its effects on tumor volume in comparison with CA4P. A human breast adenocarcinoma model was established by subcutaneous injection of cultured MDA-MB-231 cells in Fox Chase CB-17 SCID mice. When the average tumor size reached 50–100 mm^3, mice were randomly divided into several groups (n=10) with no significant difference in body weight and tumor size. Mice were administered CA4P or Oxi-com 197 in saline carrier at doses of 25, 50 or 100 mg/kg by daily intraperitoneal (i.p.) injection for 5 consecutive days (Q1×5). Saline carrier only was used as the control treatment. On Day 3, 7, 10, 13, 17 and 23, tumors were excised from animals in each treatment group (n=2) and measured by width and length. Tumor volume was calculated according to the following formula: Length×Width^2×0.4. The dosage effects of Oxi-com 197 is illustrated in FIG. 14.

[11] abbreviates: 5 days, read-out: IC50 at 5 days.
[12] abbreviates: read-out: IC50 at 1 hour, 1 hour.

Molecules are shown by their SMILES. Like-named read-outs stand apart in the source and are kept apart here.

For the compound `CCOP(=O)(Nc1c(OC)ccc2c1CCC=C2c1cc(OC)c(OC)c(OC)c1)OCC` [Oxi-com 143, 6-methoxy-1-(3′,4′,5′-trimethoxyphenyl)-5-diethylphosphoramidate-3,4-dihydronapthalene], in assay [1], the IC50 – broadly, the concentration that inhibits the measured activity by half – was above 40000 nM.
As to `COc1cc2c(cc1O)C(c1cc(OC)c(OC)c(OC)c1)=CCC2` [Oxi-com 158], in assay [2], the “GI50 for Cell Line MCF-7” value was found to be 1.5 µg/mL. For the same compound, the “GI50 for Cell Line NCI-H460” value in assay [3] is 3.2 µg/mL. Further, in assay [4], the “GI50 for Cell Line DU-145” value was found to be 3.4 µg/mL. In [5], the “GI50 for Cell Line BXPC-3” value worked out at 1.8 µg/mL. Also, in [6], the “GI50 for Cell Line KM20L2” value was found to be 2.6 µg/mL. Besides, the “GI50 for Cell Line SF-295” value in assay [7] came out at 5.4 µg/mL.
In the case of `COc1cc(C2=CCCc3c2ccc(OC)c3OP(=O)([O-])[O-])cc(OC)c1OC.[Na+].[Na+]` [Oxi-com 197], the “GI50 for Cell Line MCF-7” value in [2] is 0.0045 µg/mL. The “GI50 for Cell Line NCI-H460” value in [3] is 0.011 µg/mL. The “% VAPM (vessel area per tumor tissue area as a percentage of the control)” value in assay [8] (6.3 mg/kg single i.p.) is 65.4 ± 4.9%; in [8] (12.5 mg/kg single i.p.) it was 32.2 ± 6.8%; in [8] (25 mg/kg single i.p.) it was 13.0 ± 5.0%. For the same compound, the “% VNPM (vessel number per tumor tissue area as a percentage of the control)” value was found to be 66.5 ± 0.5% in [8] (6.3 mg/kg single i.p.), 55.5 ± 0.8% in assay [8] (12.5 mg/kg single i.p.) and 10.4 ± 6.3% in assay [8] (25 mg/kg single i.p.). Besides, the “reduction in tumor vessel number relative to the control” value in assay [8] (25 mg/kg dose) was determined as 90%. For the same compound, the 50% inhibitory concentration (IC50) in assay [9] (setting [11]) is 3 nM; in assay [9] (setting [12]) it was 100 nM. Besides, the “GI50 for Cell Line DU-145” value in [4] is 0.0055 µg/mL. Moreover, the “tumor growth (tumor volume) relative to control treatment” value in assay [10] (25, 50, and 100 mg/kg i.p. daily for 5 days (Q1×5)) is on record as “significantly inhibited tumor growth”. Moreover, the “antitumor activity relative to CA4P” value in assay [10] (MDA-MB-231 model, i.p. Q1×5) is listed as “enhanced antitumor activity relative to CA4P”. The “GI50 for Cell Line BXPC-3” value in assay [5] is 0.28 µg/mL. Moreover, the “GI50 for Cell Line KM20L2” value in [6] was 0.33 µg/mL. The “GI50 for Cell Line SF-295” value in assay [7] came out at 0.0033 µg/mL.
Take `COc1cc(C2=CCCc3c2cc(OP(=O)(O)O)c(OC)c3OP(=O)(O)O)cc(OC)c1OC` [Oxi-com 199]: the concentration for half-maximal inhibition (IC50) in assay [9] (setting [11]) was above 44800 nM; in assay [9] (setting [12]), above 44800 nM; in assay [1], above 40000 nM.
Regarding `COc1cc(C2=CCCc3c2cc(O)c(OC)c3O)cc(OC)c1OC` [Oxi-com 200], the results for the IC50 in assay [9] (setting [11]) and in assay [9] (setting [12]) were 16200 nM and above 50000 nM, respectively.
`COc1cc(C(=O)C2=CCCc3c2ccc(OC)c3OP(=O)([O-])[O-])cc(OC)c1OC.[Na+].[Na+]` [Oxi-com 224]: in assay [8], the “% VAPM at 10 mg/kg dose” value is given as 17% and the “% VAPM at 100 mg/kg dose” value came to 46%. Also, in assay [9] (setting [11]), the IC50 came out at 3 nM. Moreover, the IC50 in [9] (setting [12]) was 400 nM.
In the case of `COc1cc(C(=O)c2cccc3c(OP(=O)([O-])[O-])c(OC)ccc23)cc(OC)c1OC.[Na+].[Na+]` [Oxi-com 225], in assay [8], the “% VAPM at 10 mg/kg dose” value worked out at 35% and the “% VAPM at 100 mg/kg dose” value is reported as 60%. In addition, the IC50 in assay [9] (setting [11]) came to 5 nM. Also, the IC50 in [9] (setting [12]) is 400 nM.
With `COc1ccc2c(c1NC(=O)[C@@H](N)CO)CCC=C2c1cc(OC)c(OC)c(OC)c1` [Oxi-com 229], the 50% inhibitory concentration (IC50) in assay [9] (setting [11]) is above 1400 nM; in assay [9] (setting [12]), above 44000 nM.
On the same counts, the results for `COc1ccc(C2=CCCc3c2ccc(OC)c3O)c(OC)c1` [Oxi-com 238] are 40 nM and 14000 nM.
Take `COc1ccc(C2=CCCc3c2ccc(OC)c3OP(=O)(O)O)c(OC)c1` [Oxi-com 239]: the IC50 in [9] (setting [11]) came out at 60 nM; in assay [9] (setting [12]), 2400 nM.
In the case of `COc1ccc(OC)c(C2=CCCc3c2ccc(OC)c3O)c1` [Oxi-com 240], the IC50 came to 30 nM in [9] (setting [11]) and 8000 nM in [9] (setting [12]).
Turning to `COc1ccc(OC)c(C2=CCCc3c2ccc(OC)c3OP(=O)(O)O)c1` [Oxi-com 241], the IC50 in [9] (setting [11]) is 80 nM; in [9] (setting [12]), 2500 nM.
Consider `COc1ccc(C2=CCCc3c2ccc(OC)c3OP(=O)(O)O)cc1OC` [Oxi-com 243], for which the figures for the IC50 in assay [9] (setting [11]) and in assay [9] (setting [12]) were 300 nM and 20000 nM, respectively.
